Reference: paper PMC10004634 (PLOS ONE, 2023)
Where two headings read alike, the source gives them in different places.

Assays:
Assay in all cases: biochemical
Set-up in all cases: KINOMEscan scanMAX competition binding, DNA-tagged kinases, qPCR read-out, percent control at 300 nM
PIK3CA = PIK3CA (Homo sapiens, UniProt P42336)
ASK2 = biological target: T1, ASK2 (Homo sapiens, UniProt O95382)
T1 construct: gene MAP3K6

ULK3 = ULK3 (Homo sapiens, UniProt Q6PHR2)
MKNK2 = MKNK2 (Homo sapiens, UniProt Q9HBH9)
Chain of MKNK2 (Q9HBH9 whole entry): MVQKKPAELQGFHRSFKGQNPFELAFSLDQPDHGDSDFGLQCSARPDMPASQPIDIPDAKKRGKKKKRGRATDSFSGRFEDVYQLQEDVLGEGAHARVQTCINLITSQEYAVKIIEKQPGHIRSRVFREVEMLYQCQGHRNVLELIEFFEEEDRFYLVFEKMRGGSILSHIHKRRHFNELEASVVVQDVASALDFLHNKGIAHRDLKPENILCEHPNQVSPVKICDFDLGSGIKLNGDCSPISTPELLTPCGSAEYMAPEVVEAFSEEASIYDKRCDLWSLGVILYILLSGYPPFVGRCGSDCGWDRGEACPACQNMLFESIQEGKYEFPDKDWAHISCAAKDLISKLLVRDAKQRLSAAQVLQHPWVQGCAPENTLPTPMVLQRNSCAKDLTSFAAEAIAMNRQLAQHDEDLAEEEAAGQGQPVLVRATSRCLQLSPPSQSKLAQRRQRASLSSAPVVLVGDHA

KIT(V559D,V654A) = KIT(V559D,V654A) (Homo sapiens, UniProt P10721, V559D/V654A)
MUSK = MUSK (Homo sapiens, UniProt O15146)
PIP5K2B = biological target: T2, PIP5K2B (Homo sapiens, UniProt P78356)
T2 construct: gene PIP4K2B
T2 sequence (P78356 whole entry): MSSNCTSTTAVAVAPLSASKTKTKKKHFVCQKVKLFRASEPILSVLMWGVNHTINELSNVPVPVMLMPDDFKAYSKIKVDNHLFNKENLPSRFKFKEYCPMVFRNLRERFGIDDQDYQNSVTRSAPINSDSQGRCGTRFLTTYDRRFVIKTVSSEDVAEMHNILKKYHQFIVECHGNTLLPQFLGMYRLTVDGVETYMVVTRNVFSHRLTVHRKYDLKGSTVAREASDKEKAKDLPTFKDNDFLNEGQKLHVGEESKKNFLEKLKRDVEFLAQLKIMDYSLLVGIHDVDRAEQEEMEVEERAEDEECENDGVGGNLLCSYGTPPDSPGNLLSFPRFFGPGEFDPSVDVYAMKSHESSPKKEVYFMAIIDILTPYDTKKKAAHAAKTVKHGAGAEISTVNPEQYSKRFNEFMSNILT

EPHB4 = EPHB4 (Homo sapiens, UniProt P54760)
CSNK1D = CSNK1D (Homo sapiens, UniProt P48730)
Chain of CSNK1D (P48730 whole entry): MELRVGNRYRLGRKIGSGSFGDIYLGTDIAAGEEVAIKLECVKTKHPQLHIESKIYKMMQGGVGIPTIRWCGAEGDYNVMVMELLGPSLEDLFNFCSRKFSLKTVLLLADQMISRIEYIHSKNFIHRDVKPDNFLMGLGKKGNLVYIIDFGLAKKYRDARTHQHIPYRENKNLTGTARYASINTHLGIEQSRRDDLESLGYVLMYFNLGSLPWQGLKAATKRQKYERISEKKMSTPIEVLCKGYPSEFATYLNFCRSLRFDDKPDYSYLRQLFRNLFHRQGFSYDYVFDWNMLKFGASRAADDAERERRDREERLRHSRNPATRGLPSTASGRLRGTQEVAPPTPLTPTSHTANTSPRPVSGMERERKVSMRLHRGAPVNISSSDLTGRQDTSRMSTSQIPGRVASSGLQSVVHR

SgK110 = biological target: T3, SgK110 (Homo sapiens, UniProt P0C264)
T3 construct: gene SBK3
T3 sequence (P0C264 whole entry): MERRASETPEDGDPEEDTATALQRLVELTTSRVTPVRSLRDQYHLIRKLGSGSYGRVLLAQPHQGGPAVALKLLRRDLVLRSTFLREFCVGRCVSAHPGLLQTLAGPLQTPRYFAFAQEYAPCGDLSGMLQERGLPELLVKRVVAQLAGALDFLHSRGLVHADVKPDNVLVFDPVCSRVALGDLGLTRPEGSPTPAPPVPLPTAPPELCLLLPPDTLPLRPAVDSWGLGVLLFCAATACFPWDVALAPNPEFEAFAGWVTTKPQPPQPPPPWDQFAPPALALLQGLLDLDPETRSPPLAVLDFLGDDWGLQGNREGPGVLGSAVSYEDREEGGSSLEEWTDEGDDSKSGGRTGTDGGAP

[1] = biological target: T4, ABL1(H396P)-nonphosphorylated (Homo sapiens, UniProt P00519, H396P)
T4 construct: nonphosphorylated

MLK1 = biological target: T5, MLK1 (Homo sapiens, UniProt P80192)
T5 construct: gene MAP3K9
T5 sequence (P80192 whole entry): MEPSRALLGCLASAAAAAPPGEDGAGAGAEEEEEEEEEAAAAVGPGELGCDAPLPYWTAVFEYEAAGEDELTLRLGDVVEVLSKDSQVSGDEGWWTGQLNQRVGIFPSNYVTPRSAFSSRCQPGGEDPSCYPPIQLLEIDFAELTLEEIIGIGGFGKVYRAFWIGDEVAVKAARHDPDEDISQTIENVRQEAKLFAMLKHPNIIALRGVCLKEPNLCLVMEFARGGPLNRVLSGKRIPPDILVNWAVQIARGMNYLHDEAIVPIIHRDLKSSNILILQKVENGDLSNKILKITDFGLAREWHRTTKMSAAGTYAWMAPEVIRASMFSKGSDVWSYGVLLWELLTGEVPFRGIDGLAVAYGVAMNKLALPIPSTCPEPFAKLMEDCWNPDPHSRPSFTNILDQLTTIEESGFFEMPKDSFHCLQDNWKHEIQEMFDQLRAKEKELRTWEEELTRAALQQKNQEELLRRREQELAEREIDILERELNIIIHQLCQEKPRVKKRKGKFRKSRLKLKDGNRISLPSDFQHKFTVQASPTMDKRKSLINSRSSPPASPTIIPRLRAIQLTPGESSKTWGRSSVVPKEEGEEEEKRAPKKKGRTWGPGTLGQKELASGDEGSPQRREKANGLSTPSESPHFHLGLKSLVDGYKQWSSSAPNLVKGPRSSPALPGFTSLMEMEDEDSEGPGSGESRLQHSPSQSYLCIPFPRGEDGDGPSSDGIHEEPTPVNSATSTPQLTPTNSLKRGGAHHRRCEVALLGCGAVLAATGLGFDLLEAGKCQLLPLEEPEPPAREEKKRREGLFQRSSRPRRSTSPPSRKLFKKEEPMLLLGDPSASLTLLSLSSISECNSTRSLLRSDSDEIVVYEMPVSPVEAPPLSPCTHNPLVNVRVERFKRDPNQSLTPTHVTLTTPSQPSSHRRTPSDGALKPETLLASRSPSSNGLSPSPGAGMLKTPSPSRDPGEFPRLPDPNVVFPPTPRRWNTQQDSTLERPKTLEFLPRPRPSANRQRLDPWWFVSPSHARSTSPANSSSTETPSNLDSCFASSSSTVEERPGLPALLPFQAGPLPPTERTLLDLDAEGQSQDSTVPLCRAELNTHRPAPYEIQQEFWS

CAMK2D = CAMK2D (Homo sapiens, UniProt Q13557)
SNRK = SNRK (Homo sapiens, UniProt Q9NRH2)
[2] = biological target: T6, RPS6KA5(Kin.Dom.2-C-terminal) (Homo sapiens, UniProt O75582)
T6 construct: Kin.Dom.2-C-terminal

SRC = SRC (Homo sapiens, UniProt P12931)
Chain of SRC (P12931 whole entry): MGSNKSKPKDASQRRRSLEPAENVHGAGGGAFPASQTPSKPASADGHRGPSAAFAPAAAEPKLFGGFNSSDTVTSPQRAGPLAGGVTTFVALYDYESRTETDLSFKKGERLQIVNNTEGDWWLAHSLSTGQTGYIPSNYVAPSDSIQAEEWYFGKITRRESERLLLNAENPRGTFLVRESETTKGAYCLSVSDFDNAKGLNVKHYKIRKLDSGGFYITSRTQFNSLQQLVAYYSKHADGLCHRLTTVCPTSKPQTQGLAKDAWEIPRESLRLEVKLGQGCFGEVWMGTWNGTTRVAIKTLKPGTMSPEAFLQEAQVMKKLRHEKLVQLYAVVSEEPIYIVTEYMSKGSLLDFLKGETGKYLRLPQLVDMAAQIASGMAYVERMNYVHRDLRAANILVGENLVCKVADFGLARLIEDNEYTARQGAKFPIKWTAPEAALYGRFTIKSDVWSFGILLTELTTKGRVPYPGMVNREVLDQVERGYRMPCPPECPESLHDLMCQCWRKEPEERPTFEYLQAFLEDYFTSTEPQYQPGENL

MYO3A = MYO3A (Homo sapiens, UniProt Q8NEV4)
Chain of MYO3A (Q8NEV4 whole entry): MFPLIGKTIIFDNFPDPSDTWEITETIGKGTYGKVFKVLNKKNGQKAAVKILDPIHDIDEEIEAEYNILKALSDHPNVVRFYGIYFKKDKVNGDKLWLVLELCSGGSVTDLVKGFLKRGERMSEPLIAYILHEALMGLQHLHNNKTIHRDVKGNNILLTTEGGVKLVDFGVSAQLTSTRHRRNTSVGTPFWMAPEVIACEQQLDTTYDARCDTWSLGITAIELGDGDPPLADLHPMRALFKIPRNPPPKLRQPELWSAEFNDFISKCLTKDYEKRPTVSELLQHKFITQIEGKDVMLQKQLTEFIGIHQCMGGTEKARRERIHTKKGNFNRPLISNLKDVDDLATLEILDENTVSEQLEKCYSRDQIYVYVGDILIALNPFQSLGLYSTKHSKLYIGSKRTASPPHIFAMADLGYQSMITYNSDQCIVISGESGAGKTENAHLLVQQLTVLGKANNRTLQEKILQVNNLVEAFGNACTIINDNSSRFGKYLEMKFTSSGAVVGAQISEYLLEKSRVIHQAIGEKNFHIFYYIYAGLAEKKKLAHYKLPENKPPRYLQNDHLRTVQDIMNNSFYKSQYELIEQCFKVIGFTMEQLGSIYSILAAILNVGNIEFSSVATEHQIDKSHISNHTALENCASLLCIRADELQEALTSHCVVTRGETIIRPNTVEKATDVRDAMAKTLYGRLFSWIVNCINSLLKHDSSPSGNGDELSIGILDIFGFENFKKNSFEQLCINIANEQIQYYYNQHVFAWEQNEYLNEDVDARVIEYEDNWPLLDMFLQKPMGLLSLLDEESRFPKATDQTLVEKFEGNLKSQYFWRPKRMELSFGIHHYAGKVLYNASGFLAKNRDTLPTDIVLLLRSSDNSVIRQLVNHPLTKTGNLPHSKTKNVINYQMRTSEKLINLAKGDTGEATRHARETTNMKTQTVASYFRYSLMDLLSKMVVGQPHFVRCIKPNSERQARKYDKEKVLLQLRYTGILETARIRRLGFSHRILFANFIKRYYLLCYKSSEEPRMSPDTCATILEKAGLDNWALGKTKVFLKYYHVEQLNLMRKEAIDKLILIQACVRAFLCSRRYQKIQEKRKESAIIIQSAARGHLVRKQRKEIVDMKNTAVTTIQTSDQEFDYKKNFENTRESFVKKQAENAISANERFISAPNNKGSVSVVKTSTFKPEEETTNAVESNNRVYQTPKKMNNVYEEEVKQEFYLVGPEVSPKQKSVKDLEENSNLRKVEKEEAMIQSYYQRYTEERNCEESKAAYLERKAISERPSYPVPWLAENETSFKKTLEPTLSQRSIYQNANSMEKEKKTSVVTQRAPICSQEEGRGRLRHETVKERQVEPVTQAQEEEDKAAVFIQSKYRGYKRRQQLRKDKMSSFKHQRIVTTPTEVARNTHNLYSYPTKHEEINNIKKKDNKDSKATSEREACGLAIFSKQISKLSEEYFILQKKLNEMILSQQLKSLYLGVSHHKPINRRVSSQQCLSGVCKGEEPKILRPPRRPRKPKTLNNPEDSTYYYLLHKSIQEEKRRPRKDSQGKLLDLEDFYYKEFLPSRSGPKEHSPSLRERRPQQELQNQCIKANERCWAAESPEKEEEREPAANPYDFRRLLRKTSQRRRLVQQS

MAP4K5 = MAP4K5 (Homo sapiens, UniProt Q9Y4K4)
ERBB4 = ERBB4 (Homo sapiens, UniProt Q15303)
[3] = biological target: T7, ABL1(F317L)-nonphosphorylated (Homo sapiens, UniProt P00519, F317L)
T7 construct: nonphosphorylated

MYLK = MYLK (Homo sapiens, UniProt Q15746)
[4] = biological target: T8, TYK2(JH1domain-catalytic) (Homo sapiens, UniProt P29597)
T8 construct: JH1domain-catalytic

p38-beta = biological target: T9, p38-beta (Homo sapiens, UniProt Q15759)
T9 construct: gene MAPK11

[5] = read-out: Percent control / Acalabrutinib
[6] = read-out: Percent control / Ibrutinib
[7] = read-out: Percent control / Zanubrutinib

CC#CC(=O)N1CCC[C@H]1c1nc(-c2ccc(C(=O)Nc3ccccn3)cc2)c2c(N)nccn12 [Acalabrutinib]
remaining binding at 0.3 µM (PIK3CA; [5]): 97%
remaining binding at 0.3 µM (ASK2; [5]): 87%
remaining binding at 0.3 µM (ULK3; [5]): 91%
remaining binding at 0.3 µM (MKNK2; [5]): 93%
remaining binding at 0.3 µM (KIT(V559D,V654A); [5]): 94%
remaining binding at 0.3 µM (MUSK; [5]): 82%
remaining binding at 0.3 µM (PIP5K2B; [5]): 93%
remaining binding at 0.3 µM (EPHB4; [5]): 93%
remaining binding at 0.3 µM (CSNK1D; [5]): 85%
remaining binding at 0.3 µM (SgK110; [5]): 94%
remaining binding at 0.3 µM [1, 5]: 85%
remaining binding at 0.3 µM (MLK1; [5]): 92%
remaining binding at 0.3 µM (CAMK2D; [5]): 93%
remaining binding at 0.3 µM (SNRK; [5]): 93%
remaining binding at 0.3 µM [2, 5]: 92%
remaining binding at 0.3 µM (SRC; [5]): 99%
remaining binding at 0.3 µM (MYO3A; [5]): 75%
remaining binding at 0.3 µM (MAP4K5; [5]): 90%
remaining binding at 0.3 µM (ERBB4; [5]): 7.7%
remaining binding at 0.3 µM [3, 5]: 78%
remaining binding at 0.3 µM (MYLK; [5]): 82%

C=CC(=O)N1CCC[C@@H](n2nc(-c3ccc(Oc4ccccc4)cc3)c3c(N)ncnc32)C1 [Ibrutinib]
remaining binding at 0.3 µM [4, 6]: 87%
remaining binding at 0.3 µM [1, 6]: 31%
remaining binding at 0.3 µM (p38-beta; [6]): 85%
remaining binding at 0.3 µM (MYO3A; [6]): 96%
remaining binding at 0.3 µM (ERBB4; [6]): 0.15%
remaining binding at 0.3 µM [3, 6]: 54%

CC#CC(=O)N1CC[C@@H](n2c(=O)n(-c3ccc(Oc4ccccc4)cc3)c3c(N)ncnc32)C1 [Tirabrutinib]
remaining binding at 0.3 µM (SRC; read-out: Percent control / Tirabrutinib): 95%

C=CC(=O)N1CCC([C@@H]2CCNc3c(C(N)=O)c(-c4ccc(Oc5ccccc5)cc4)nn32)CC1 [Zanubrutinib]
remaining binding at 0.3 µM (PIK3CA; [7]): 57%
remaining binding at 0.3 µM (ASK2; [7]): 55%
remaining binding at 0.3 µM (ULK3; [7]): 82%
remaining binding at 0.3 µM (MKNK2; [7]): 84%
remaining binding at 0.3 µM (KIT(V559D,V654A); [7]): 90%
remaining binding at 0.3 µM (MUSK; [7]): 96%
remaining binding at 0.3 µM [4, 7]: 82%
remaining binding at 0.3 µM (PIP5K2B; [7]): 88%
remaining binding at 0.3 µM (EPHB4; [7]): 87%
remaining binding at 0.3 µM (CSNK1D; [7]): 100%
remaining binding at 0.3 µM (SgK110; [7]): 91%
remaining binding at 0.3 µM (MLK1; [7]): 84%
remaining binding at 0.3 µM (CAMK2D; [7]): 80%
remaining binding at 0.3 µM (SNRK; [7]): 90%
remaining binding at 0.3 µM [2, 7]: 100%
remaining binding at 0.3 µM (p38-beta; [7]): 82%
remaining binding at 0.3 µM (MAP4K5; [7]): 98%
remaining binding at 0.3 µM (MYLK; [7]): 82%
